How the values were obtained:
hSGLT2 wild-type = biological target: T1, hSGLT2 wild-type (Homo sapiens, UniProt P31639); assay: SGLT current measurement in oocytes, hSGLT2 wild-type (MAP17 co-injected); assay type: cell-based; set-up: expressed in transfected cells; host or cells: Xenopus laevis oocytes injected with hSGLT2 cRNA and MAP17 cRNA; details: 22 °C
T1 sequence (P31639 1-672): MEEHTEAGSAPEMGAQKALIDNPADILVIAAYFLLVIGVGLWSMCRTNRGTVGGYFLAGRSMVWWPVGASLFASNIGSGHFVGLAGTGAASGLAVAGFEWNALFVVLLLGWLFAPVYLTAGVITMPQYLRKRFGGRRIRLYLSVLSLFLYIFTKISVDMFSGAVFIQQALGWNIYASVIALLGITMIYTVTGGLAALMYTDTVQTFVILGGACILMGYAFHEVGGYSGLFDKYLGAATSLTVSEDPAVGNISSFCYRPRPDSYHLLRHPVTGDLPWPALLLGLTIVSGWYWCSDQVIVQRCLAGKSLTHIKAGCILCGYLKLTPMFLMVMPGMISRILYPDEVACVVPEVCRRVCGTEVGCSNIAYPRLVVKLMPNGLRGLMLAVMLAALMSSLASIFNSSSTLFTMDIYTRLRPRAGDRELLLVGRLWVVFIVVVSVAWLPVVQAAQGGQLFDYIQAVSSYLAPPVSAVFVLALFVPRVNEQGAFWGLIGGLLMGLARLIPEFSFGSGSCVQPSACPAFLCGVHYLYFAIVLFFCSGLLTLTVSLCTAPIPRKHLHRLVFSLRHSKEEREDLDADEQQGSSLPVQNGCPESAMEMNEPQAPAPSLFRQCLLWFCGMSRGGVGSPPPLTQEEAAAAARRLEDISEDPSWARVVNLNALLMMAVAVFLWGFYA
T1 sequence (Q13113 1-114 partner): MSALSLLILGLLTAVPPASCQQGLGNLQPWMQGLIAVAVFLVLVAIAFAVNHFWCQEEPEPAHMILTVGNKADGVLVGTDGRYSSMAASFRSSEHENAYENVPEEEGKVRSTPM
Protocol: (§1) Xenopus laevis (Nasco) oocytes (V–VI) were prepared as previously described[20] and injected with 50 nl of cRNA (1 μg/μl). […] Briefly, oocytes were incubated for 30 min in the presence of 50 μM αMDG (5 μM [^14C]αMDG) in a buffer containing (in mM) 100 NaCl, 2 KCl, 1 MgCl2, 1 CaCl2, and 10 N-(2-hydroxyethyl)piperazine-N′-(2-ethanesulfonic acid) (HEPES)/Tris (pH 7.5). After incubation, oocytes were rinsed thoroughly with ice-cold buffer containing (mM) 100 choline Cl^–, 2 KCl, 1 MgCl2, 1 CaCl2, and 10 HEPES/Tris (pH 7.5), individually lysed with 5% sodium dodecyl sulfate, and assayed for radioactivity.
(§2) Injected oocytes were incubated at 18 °C, and after 3–4 days, two electrode voltage clamp experiments were performed as previously described. Briefly, SGLT inward glucose currents were measured as a function of the external Na^+ (0–100 mM NaCl), sugar (0–100 mM αMDG), and inhibitors (0.001–100 μM). Steady-state and hSGLT1 capacitive currents were recorded using voltage steps from a holding voltage, Vh of −60 mV, to voltages in the range of −180 to +50 mV in 20 mV increments. The apparent affinity of αMDG, K0.5, was estimated from plots of the inward current as a function of the external αMDG concentration. Under our experimental conditions, K0.5 is a close approximation of the αMDG binding constant to the Na^+-bound outward conformation of SGLT. The apparent affinity for Na^+, K0.5, was estimated from plots of the αMDG inward current as a function of external Na^+ concentration. For hSGLT1 the interpretation of K0.5 is more complex owing to the presence of two Na^+ binding sites. In this case, the K0.5 is a lumped coefficient for Na^+ binding to the two sites in the outward-facing hSGLT1 conformation. […] The Na^+-to-αMDG stoichiometry was determined from the reversal potential measurements using the Gibbs free energy as previously described. The stoichiometry determinations were reinforced by estimates of αMDG and Na^+ Hill coefficients, and in some cases, by measurement of ^22Na and [^14C]αMDG uptakes under voltage clamp, [21].

hSGLT2 A395T = biological target: T2, hSGLT2 A395T (Homo sapiens, UniProt P31639, A395T); assay: cell-based; details: poor expression; n = 4 oocytes
T2 construct: expressed in transfected cells; host or cells: Xenopus laevis oocytes injected with hSGLT2 A395T cRNA and MAP17 cRNA
T2 sequence (P31639 whole entry A395T, one chain of several): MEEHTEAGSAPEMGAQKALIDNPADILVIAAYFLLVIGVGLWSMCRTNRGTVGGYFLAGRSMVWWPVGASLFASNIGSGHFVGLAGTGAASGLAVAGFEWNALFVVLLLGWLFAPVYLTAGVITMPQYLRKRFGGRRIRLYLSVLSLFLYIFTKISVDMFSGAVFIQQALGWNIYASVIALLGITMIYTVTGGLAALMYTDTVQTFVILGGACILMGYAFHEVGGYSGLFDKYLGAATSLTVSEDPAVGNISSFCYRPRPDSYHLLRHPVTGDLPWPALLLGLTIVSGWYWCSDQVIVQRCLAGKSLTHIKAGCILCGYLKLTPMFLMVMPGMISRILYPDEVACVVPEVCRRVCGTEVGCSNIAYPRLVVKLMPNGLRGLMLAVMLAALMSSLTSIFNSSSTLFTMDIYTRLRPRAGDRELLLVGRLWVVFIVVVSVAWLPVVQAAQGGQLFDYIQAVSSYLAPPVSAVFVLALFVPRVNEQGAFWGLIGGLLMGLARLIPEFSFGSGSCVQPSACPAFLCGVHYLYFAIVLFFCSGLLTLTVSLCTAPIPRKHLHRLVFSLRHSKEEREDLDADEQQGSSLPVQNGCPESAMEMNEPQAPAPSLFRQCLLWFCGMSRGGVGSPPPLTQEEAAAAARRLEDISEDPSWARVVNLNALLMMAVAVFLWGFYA
Protocol: as §1, §2

hSGLT1 Y290C = system: hSGLT1 Y290C; set-up: method as in PMID 22159082; details: oocytes, 22 °C; cited from earlier work
hSGLT1 Y290F = biological target: T3, hSGLT1 Y290F (Homo sapiens, UniProt P13866, Y290F); set-up: method as in PMID 23116249; details: oocytes, 22 °C; cited from earlier work
T3 construct: expressed in transfected cells; host or cells: Xenopus laevis oocytes injected with cRNA
T3 sequence (P13866 1-664 Y290F): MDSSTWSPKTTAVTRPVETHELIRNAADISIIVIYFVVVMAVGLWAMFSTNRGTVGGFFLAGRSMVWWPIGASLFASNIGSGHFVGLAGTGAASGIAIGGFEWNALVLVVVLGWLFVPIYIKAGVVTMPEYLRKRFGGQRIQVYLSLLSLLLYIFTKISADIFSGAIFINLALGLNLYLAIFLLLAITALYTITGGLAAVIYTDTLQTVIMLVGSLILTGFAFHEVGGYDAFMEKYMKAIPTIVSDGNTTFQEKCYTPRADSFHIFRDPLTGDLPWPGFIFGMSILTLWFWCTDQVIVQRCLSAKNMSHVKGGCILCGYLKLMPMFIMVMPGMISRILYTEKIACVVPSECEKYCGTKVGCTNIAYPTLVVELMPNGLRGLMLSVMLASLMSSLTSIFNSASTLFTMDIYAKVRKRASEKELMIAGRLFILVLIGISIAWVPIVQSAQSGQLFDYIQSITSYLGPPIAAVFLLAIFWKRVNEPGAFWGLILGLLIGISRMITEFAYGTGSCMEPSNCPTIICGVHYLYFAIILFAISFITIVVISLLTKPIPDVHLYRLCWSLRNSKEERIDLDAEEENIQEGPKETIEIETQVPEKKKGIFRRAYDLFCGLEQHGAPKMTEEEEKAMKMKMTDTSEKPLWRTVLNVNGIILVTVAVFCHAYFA

In the case of [Na+] [Na^+], the “K0.5 Na^+” value (hSGLT2 wild-type) is listed as 22 ± 1 mM, the “K0.5 Na^+” value (hSGLT2 A395T) is listed as 30 ± 10 mM and the “K0.5 Na^+” value (hSGLT1 Y290C) is listed as 46 ± 5[20] mM. For the same molecule, the “K0.5 Na^+” value (hSGLT1 Y290F) was 20 ± 1[21] mM.
